Test results published in patent US8273754B2, “Substituted 1H-pyrazolo[3,4-D]pyrimidine-6-amine compounds” (ArQule, Inc., priority 2008, dated 2012).
Read-outs that look alike come from different tables or passages of the source.

Key:
FGFR2 (N549H) = target: T1, FGFR2 (N549H) (Homo sapiens, UniProt P21802, N549H); assay: fluorescent ELISA assay for inhibitors of FGFR2 kinase; type: biochemical; settings: Pyk2 peptide substrate, 60 minutes
T1 construct: purchased Millipore 14-742
Summary of the method: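 FGFR2 enzyme (0.5 μM) phosphorylates biotinylated Pyk2 peptide (37 μM) with 12.5 μM ATP added, in Tris-HCl buffer containing 10 mM MgCl2, 2 mM DTT and 75 μM ATP, for 60 min. Peptide captured on streptavidin 30 min at room temperature; phosphotyrosine detected by antibody, alkaline phosphatase secondary and Attophos fluorescence (ex 400/em 595 nm). Inhibition seen as signal decrease.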

cancer cells = assay: MTS cell growth inhibition assay (72 hours); type: cell-based
Summary of the method: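 Growth inhibition read as formazan absorbance at 492 nm after 4 h MTS/PMS, following 72 h compound exposure at 37 °C in 1% FBS DMEM (cells pre-seeded 18 h). IC50 = 50% absorbance reduction; inhibition graded in bands.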

[1] = Homo sapiens, DLD-1, 72 h, DLD-1 cells, read-out: DLD-1 MTS 72 hr at 10 μM
[2] = Homo sapiens, KATO III, 72 h, KATO III cells, read-out: KATO III MTS 72 hr at 10 μM
[3] = Homo sapiens, MDA-MB-231, 72 h, MDA-MB-231 cells, read-out: MDA-MB-231 MTS 72 hr at 10 μM
[4] = Homo sapiens, NCI-H1299, 72 h, NCI-H1299 cells, read-out: NCI-H1299 MTS 72 hr at 10 μM
[5] = PaCa-2, 72 h, PACA-2 cells, read-out: PACA-2 MTS 72 hr at 10 μM

T1 sequence (P21802 22-821 N549H): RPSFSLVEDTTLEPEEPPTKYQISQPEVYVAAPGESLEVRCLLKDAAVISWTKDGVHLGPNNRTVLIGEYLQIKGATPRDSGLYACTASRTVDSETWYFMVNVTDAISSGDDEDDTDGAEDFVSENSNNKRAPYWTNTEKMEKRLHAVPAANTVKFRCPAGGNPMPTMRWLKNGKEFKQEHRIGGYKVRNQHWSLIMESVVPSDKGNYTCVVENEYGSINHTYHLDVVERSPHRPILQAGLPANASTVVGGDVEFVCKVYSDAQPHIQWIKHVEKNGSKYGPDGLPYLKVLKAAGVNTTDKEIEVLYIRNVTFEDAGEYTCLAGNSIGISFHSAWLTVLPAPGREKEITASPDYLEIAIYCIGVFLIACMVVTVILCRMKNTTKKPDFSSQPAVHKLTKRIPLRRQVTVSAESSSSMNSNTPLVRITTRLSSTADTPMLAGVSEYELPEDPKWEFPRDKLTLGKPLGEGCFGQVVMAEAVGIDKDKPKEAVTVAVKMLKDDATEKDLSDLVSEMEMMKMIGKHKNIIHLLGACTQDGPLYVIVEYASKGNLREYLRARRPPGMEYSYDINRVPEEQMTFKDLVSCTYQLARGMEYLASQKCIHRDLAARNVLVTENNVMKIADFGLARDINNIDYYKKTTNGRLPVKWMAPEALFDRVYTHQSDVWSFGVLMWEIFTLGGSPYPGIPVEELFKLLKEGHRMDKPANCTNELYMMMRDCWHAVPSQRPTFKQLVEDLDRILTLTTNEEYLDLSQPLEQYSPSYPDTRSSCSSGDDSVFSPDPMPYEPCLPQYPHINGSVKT

IC50 (FGFR2 (N549H)) [µM]	melting point [°C]	SMILES	inhibition at 10 µM (cancer cells; [1]) [%]	inhibition at 10 µM (cancer cells; [2]) [%]	inhibition at 10 µM (cancer cells; [3]) [%]	inhibition at 10 µM (cancer cells; [4]) [%]	inhibition at 10 µM (cancer cells; [5]) [%]
17.9	165 to 173	Nc1nc(NC2Cc3ccccc3N(C(=O)c3ccc(Cl)cc3Cl)C2)c2cn[nH]c2n1 (centres unmarked) [Compound 13, (3-(6-amino-1H-pyrazolo[3,4-d]pyrimidin-4-ylamino)-3,4-dihydroquinolin-1(2H)-yl)(2,4-dichlorophenyl)methanone]	< 50	< 50	< 50	< 50	< 50
19.3	128 to 132	Nc1nc(NC2Cc3ccccc3N(Cc3cccc(-c4ccccc4)c3)C2)c2cn[nH]c2n1 (centres unmarked) [Compound 224, N4-(1-(biphenyl-3-ylmethyl)-1,2,3,4-tetrahydroquinolin-3-yl)-1H-pyrazolo[3,4-d]pyrimidine-4,6-diamine]	> 79	> 79	< 50	> 79	> 79
0.23	153 to 163	Nc1nc(NC2Cc3ccccc3N(S(=O)(=O)c3ccc(Cl)cc3Cl)C2)c2cn[nH]c2n1 (centres unmarked) [Compound 14, N^4-(1-(2,4-dichlorophenylsulfonyl)-1,2,3,4-tetrahydroquinolin-3-yl)-1H-pyrazolo[3,4-d]pyrimidine-4,6-diamine]	< 50	50 to 79	< 50	< 50	< 50
15.3		Nc1nc(NC2Cc3ccccc3N(S(=O)(=O)c3cccc4nsnc34)C2)c2cn[nH]c2n1 (centres unmarked) [Compound 17, N4-(1-(benzo[c][1,2,5]thiadiazol-4-ylsulfonyl)-1,2,3,4-tetrahydroquinolin-3-yl)-1H-pyrazolo[3,4-d]pyrimidine-4,6-diamine]	< 50	< 50	< 50	< 50	< 50
2.58		Nc1nc(NC2Cc3ccccc3N(S(=O)(=O)c3cccs3)C2)c2cn[nH]c2n1 (centres unmarked) [Compound 23, N4-(1-(thiophen-2-ylsulfonyl)-1,2,3,4-tetrahydroquinolin-3-yl)-1H-pyrazolo[3,4-d]pyrimidine-4,6-diamine]	< 50	< 50	< 50	< 50	< 50

The next lines start with the molecule.

SMILES	IC50 (FGFR2 (N549H)) [µM]	melting point [°C]	inhibition at 10 µM (cancer cells; [1]) [%]	inhibition at 10 µM (cancer cells; [2]) [%]	inhibition at 10 µM (cancer cells; [3]) [%]	inhibition at 10 µM (cancer cells; [4]) [%]	inhibition at 10 µM (cancer cells; [5]) [%]
Nc1nc(NC2Cc3ccccc3N(Cc3ccc(Cl)cc3Cl)C2)c2cn[nH]c2n1 (centres unmarked) [Compound 4, N^4-(1-(2,4-dichlorobenzyl)-1,2,3,4-tetrahydroquinolin-3-yl)-1H-pyrazolo[3,4-d]pyrimidine-4,6-diamine]	3.06	170 to 174	> 79	> 79	> 79	> 79	> 79
Nc1nc(N[C@H]2Cc3ccccc3N(Cc3ccc(F)cc3)C2)c2cn[nH]c2n1 [Compound 8, N^4-((3S)-1-(4-fluorobenzyl)-1,2,3,4-tetrahydroquinolin-3-yl)-1H-pyrazolo[3,4-d]pyrimidine-4,6-diamine]	11	78 to 80	> 79	> 79	< 50	< 50	< 50
Nc1nc(NC2Cc3ccccc3N(C(=O)c3ccccc3)C2)c2cn[nH]c2n1 (centres unmarked) [Compound 12, (3-(6-amino-1H-pyrazolo[3,4-d]pyrimidin-4-ylamino)-3,4-dihydroquinolin-1(2H)-yl)(phenyl)methanone]	21	155 to 164	< 50	< 50	< 50	< 50	< 50
Nc1nc(N[C@@H]2Cc3ccccc3N(Cc3ccc(F)cc3)C2)c2cn[nH]c2n1 [Compound 9, (R)—N4-(1-(4-fluorobenzyl)-1,2,3,4-tetrahydroquinolin-3-yl)-1H-pyrazolo[3,4-d]pyrimidine-4,6-diamine]	0.22	140 to 143	50 to 79	> 79	< 50	50 to 79	50 to 79
Nc1nc(NC2Cc3ccccc3N(CCc3ccccc3)C2)c2cn[nH]c2n1 (centres unmarked) [Compound 2, N^4-(1-(2-phenylethyl)-1,2,3,4-tetrahydroquinolin-3-yl)-1H-pyrazolo[3,4-d]pyrimidine-4,6-diamine]	0.17	117 to 122	50 to 79	50 to 79	< 50	50 to 79	< 50
Nc1nc(NC2Cc3ccccc3N(Cc3ccc(F)cc3F)C2)c2cn[nH]c2n1 (centres unmarked) [Compound 1, N^4-(1-(2,4-difluorobenzyl)-1,2,3,4-tetrahydroquinolin-3-yl)-1H-pyrazolo[3,4-d]pyrimidine-4,6-diamine]	1.81	110 to 114	> 79	> 79	< 50	50 to 79	50 to 79
Nc1nc(NC2Cc3ccccc3N(c3ccccc3)C2)c2cn[nH]c2n1 (centres unmarked) [Compound 11, N^4-(1-phenyl-1,2,3,4-tetrahydroquinolin-3-yl)-1H-pyrazolo[3,4-d]pyrimidine-4,6-diamine]	2.08	88 to 92	< 50	< 50	< 50	< 50	< 50
Nc1nc(NC2Cc3ccccc3N(Cc3cccc(C(F)(F)F)c3)C2)c2cn[nH]c2n1 (centres unmarked) [Compound 5, N^4-(1-(3-(trifluoromethyl)benzyl)-1,2,3,4-tetrahydroquinolin-3-yl)-1H-pyrazolo[3,4-d]pyrimidine-4,6-diamine]	10.7	89 to 94	< 50	50 to 79	< 50	< 50	< 50
